Columns and labels:
Format in all cases: functional
[1] = tested on: Felis catus; experiment: Percent reduction in heart rate after iv administration of 1 umol/kg of compound in anesthetized cats.
[2] = species on record: Felis catus; experiment: Tested for inhibition of postganglionic cardioaccelerator nerve in the cat; conditions: for ED50: Felis catus, read-out: ID50 (the source's name)
[3] = tested on: Felis catus; experiment: Percent reduction in blood pressure after iv administration of 1 umol/kg of compound in anesthetized cat
[4] = species on record: Felis catus; experiment: Tested for inhibitory activity against postganglionic cardioaccelerator nerve relative to apomorphine

Row | SMILES | Reduction [1] | ED50 [2] | Reduction [3] | Relative activity [4] | ID50 [2]
1 | Br.CCN1CC[C@H]2CCc3cc(O)c(O)cc3[C@H]2C1 | 4.3 beats min-1 | 0.81 µmol/kg | 18.5% | 0.025 | 
2 | Br.CCCN1CC[C@H]2CCc3cc(O)c(O)cc3[C@@H]2C1 (relative stereo) | 3 beats min-1 | 0.8 µmol/kg | 13.3% | 0.026 | 
3 | Br.CCCN1CC[C@H]2CCc3cc(O)c(O)cc3[C@H]2C1 (relative stereo) | 22.6 beats min-1 | 0.9 µmol/kg | 31.7% | 0.02 | 
4 | Br.Oc1cc2c(cc1O)C1CNCCC1CC2 (stereo in doubt; 21) | 13.6 beats min-1 |  | 27.9% | 0.073 | 0.31 µM/kg
5 | Br.CN1CCC2CCc3cc(O)c(O)cc3C2C1 (trans isomer) | 3.2 beats min-1 | 0.52 µmol/kg | 14.6% | 0.038 | 
6 | Br.Oc1cc2c(cc1O)C1CNCCC1CC2 (trans isomer) | 49 beats min-1 |  | 21.9% | 0.27 | 0.8 µM/kg
7 | CN1CCc2cccc3c2[C@H]1Cc1ccc(O)c(O)c1-3 [APOMORPHINE] |  | 0.024 µmol/kg |  | 1 | 

— ChEMBL document CHEMBL1121576, “Congeners of the alpha conformer of dopamine derived from octahydrobenz[h]isoquinoline” (1980)
